The values that follow come from article PMC8302504, “Efficacy of Fenfluramine and Norfenfluramine Enantiomers and Various Antiepileptic Drugs in a Zebrafish Model of Dravet Syndrome” (Neurochemical Research, 2021).

The structures appear in SMILES notation. Entries after “also recorded” stand apart in the source; their conditions may differ.

Data set [1] has as its system zebrafish scn1Lab−/− mutant larvae. The data set can be described thus: Locomotor activity measurement (behavioral assay) in the zebrafish DS model. Format: in vivo, Danio rerio. Conditions: 22 h; for effect on epileptiform (hyper-)locomotor activity: single treatment at MTC, Fig. 2A. The protocol:
(§1) WT and homozygous zebrafish larvae (scn1Lab^−/− mutants) (6 dpf) were individually positioned in single wells of a 96-well plate, and incubated in 100 μL VHC or VHC supplemented with compound or combined compounds for 22 h at 28 °C on a 14/10 h light/dark cycle. Then, the plates were placed immediately in an enclosed tracking device (ZebraBox Viewpoint, France), followed by a 30 min chamber habituation and 10 min recording. Locomotor activity over the total tracking period of 10 min was quantified by ZebraLab software (Software Viewpoint, France) using the lardist parameter (total distance in large movements) and 150 bkg (background) as a threshold, as reported previously by our group. For “small/large movement” and “inact/small movement”, a threshold was used of 6.4 and 3.3, respectively. Data were pooled from three or four independent experiments, with at least five larvae for each treatment and 20–30 larvae for each experimental condition, and expressed as “cm” per 100 s.

The test system is the same in data set [2]. The data set can be described thus: Noninvasive local field potential (LFP) recordings from the optic tectum. The note with it: 22 h; for effect on cumulative duration of epileptiform events: Fig. 2B; for effect on frequency of epileptiform events: Fig. 2C. Format: in vivo, Danio rerio. On the procedure: (§2) WT and homozygous zebrafish larvae (scn1Lab^−/− mutants) (6 dpf) were treated as described above. After incubation, larvae were immobilized in 2% low-melting-point agarose (Invitrogen) at room temperature (RT) and the epileptiform activities were measured by noninvasive local field potential (LFP) recording from the skin above the optic tectum (midbrain). The single glass electrode filled with artificial cerebrospinal fluid (ACSF) (124 mM NaCl, 2 mM KCl, 2 mM MgSO4, 2 mM CaCl2, 1.25 mM KH2PO4, 26 mM NaHCO3, and 10 mM glucose) was positioned on the skin above the optic tectum. Each recording lasted for 10 min. Epileptiform activity was quantified by using Clampfit 10.2 software (Molecular Devices Corporation, USA60), as reported previously by our group.

Another data set concerns WT zebrafish larvae. The data set can be described thus: Toxicity evaluation: maximum tolerated concentration (MTC). Format: in vivo, Danio rerio. Conditions: WT larvae 6 dpf, 22 h incubation. The protocol:
To evaluate the maximum tolerated concentration (MTC) of the individual compounds, a dozen of WT zebrafish larvae (6 dpf) were individually incubated in single wells of a 96-well plate, and treated with two-fold serial dilutions of the compounds. After 22 h incubation under standard conditions (28 °C, 14/10 light/dark cycle), larvae were individually examined for their touch response, posture, edema, signs of necrosis, morphology, heartbeat rate, and swim bladder condition under the microscope.

The test system of data set [3] is zebrafish scn1Lab−/− mutant model of DS. Put plainly: Overall antiepileptic activity in the zebrafish scn1Lab−/− mutant model (locomotor and LFP read-outs together). It is filed as in vivo, Danio rerio. The note with it: 22 h incubation. On the procedure:
as §1, §2

Data set [4] relates to norepinephrine (NE) release. On the set-up: method as in earlier work. Conditions: 34 (Rothman et al.); cited from earlier work.
A further data set concerns dopamine (DA) release. Also noted: method as in earlier work. The note with it: 34 (Rothman et al.); cited from earlier work.
Another data set relates to 5-HT2C. On the set-up: method as in earlier work. Conditions: 34 (Rothman et al.); cited from earlier work.
The next data set concerns the target dopamine (DA) uptake. Also noted: method as in earlier work. The note with it: 34 (Rothman et al.); read-out: Ki values for uptake inhibition, DA; cited from earlier work.
The target of data set [5] is norepinephrine (NE) uptake. Also noted: method as in earlier work. The note with it: 34 (Rothman et al.); read-out: Ki values for uptake inhibition, NE; cited from earlier work.
Another data set deals with 5-HT2B. On the set-up: method as in earlier work. The note with it: 34 (Rothman et al.); cited from earlier work.
The mark [6] stands for this setting: VPA single treatment at 250 µM, Fig. 3.

What is called EC50 is the concentration at which the effect is half-maximal. What is called Ki is a measure of affinity in units of concentration, obtained from inhibition or displacement.

On to `C=C(C)[C@@H]1CCC(C)=C[C@H]1c1c(O)cc(CCCCC)cc1O` [CBD, cannabidiol], for which the “effect on epileptiform (hyper-)locomotor activity” value in data set [1] is recorded as “failed to rescue; also recorded: not active”. The “effect on epileptiform brain discharges” value in data set [2] (single treatment at MTC) is recorded as “failed to rescue; also recorded: not active”. In addition, in the data set with WT zebrafish larvae, the “maximum tolerated concentration (MTC)” value was found to be 6.25 µM.

Turning to `O=C1NC(=O)C(c2ccccc2)(c2ccccc2)N1` [PHT, Phenytoin], the “effect on epileptiform (hyper-)locomotor activity” value in [1] was “no inhibitory effects”. For the same compound, the “effect on epileptiform brain discharges” value in data set [2] (single treatment at MTC) is given as “no inhibitory effects”. Further, in the data set on WT zebrafish larvae, the “maximum tolerated concentration (MTC)” value turned out to be 100 µM.

For the compound `CC[C@@H](C(N)=O)N1CCCC1=O` [LEV, levetiracetam], in data set [1], the “effect on epileptiform (hyper-)locomotor activity” value is recorded as “failed to rescue”. The “effect on epileptiform brain discharges” value in data set [2] (single treatment at MTC) was “failed to rescue”. Besides, in the data set with WT zebrafish larvae, the “maximum tolerated concentration (MTC)” value came to 10000 µM. Moreover, the “antiepileptic activity in the model (overall)” value (“antiepileptic activity” below) in data set [3] is listed as “failed to suppress”.

With `NC(=O)N1c2ccccc2C=Cc2ccccc21` [CBZ, carbamazepine], the “effect on epileptiform (hyper-)locomotor activity” value in data set [1] was “no inhibitory effects”. The “effect on epileptiform brain discharges” value in data set [2] (single treatment at MTC) is on record as “no inhibitory effects”. The “maximum tolerated concentration (MTC)” value with WT zebrafish larvae is reported as 50 µM.

With `CCCC(CCC)C(=O)O` [VPA, Valproate], the “effect on locomotor activity” value in data set [1] (setting [6]) is “limited and statistically non-significant effect; also recorded: not active”. Further, in data set [1], the “effect on epileptiform (hyper-)locomotor activity” value was “complete rescue”. In addition, the “effect on epileptiform brain discharges” value in data set [2] (setting [6]) is “limited and statistically non-significant effect; also recorded: not active”. Besides, in [2] (single treatment at MTC), the “effect on cumulative duration of epileptiform events” value (“effect on cumulative duration” below) is recorded as “complete rescue” and the “effect on frequency of epileptiform events” value (shortened to “effect on frequency”) is reported as “complete rescue”. The “maximum tolerated concentration (MTC)” value in the data set on WT zebrafish larvae amounted to 1000 µM.

In the case of `CCN[C@H](C)Cc1cccc(C(F)(F)F)c1` [(−)-FFA], the 50% effective concentration (EC50) (in data set [4]; with dopamine (DA) release) was more than 10 µM throughout. Also, the “Kact values for 5-HT2 receptor subtypes, 5-HT2C” value with 5-HT2C is 360 ± 91 nM. The Ki on dopamine (DA) uptake was more than 20 µM; in data set [5], 7.19 ± 0.559 µM. Moreover, the “Kact values for 5-HT2 receptor subtypes, 5-HT2B” value with 5-HT2B is on record as 1248 ± 252 nM. For the same compound, in [3], the “antiepileptic activity” value is “significant antiepileptic effects”.

Regarding `CC1(C)O[C@@H]2[C@@H](CO[C@@]3(COS(N)(=O)=O)OC(C)(C)O[C@@H]23)O1` [TPM, topiramate], the “effect on epileptiform (hyper-)locomotor activity” value in data set [1] was “significantly counteracted”. Moreover, in data set [2] (single treatment at MTC), the “effect on cumulative duration” value was “decrease” and the “effect on frequency” value is “dramatically attenuated”. Further, the “maximum tolerated concentration (MTC)” value in the data set with WT zebrafish larvae worked out at 200 µM. In data set [3], the “antiepileptic activity” value is reported as “pronounced therapeutic activity”.

For the compound `CC(C)(C)C(O)/C=C/c1ccc2c(c1)OCO2` (centres unmarked) [STP, stiripentol], the “effect on epileptiform (hyper-)locomotor activity” value in [1] was “failed to rescue; also recorded: not active”. For the same compound, the “effect on epileptiform brain discharges” value in [2] (single treatment at MTC) is listed as “failed to rescue; also recorded: not active”. For the same compound, in the data set on WT zebrafish larvae, the “maximum tolerated concentration (MTC)” value came to 50 µM.

Turning to `Nc1nnc(-c2cccc(Cl)c2Cl)c(N)n1` [LTG, lamotrigine], in data set [1], the “effect on epileptiform (hyper-)locomotor activity” value is “no inhibitory effects”. For the same compound, the “effect on epileptiform brain discharges” value in data set [2] (single treatment at MTC) is “no inhibitory effects”. Also, the “maximum tolerated concentration (MTC)” value in the data set with WT zebrafish larvae amounted to 100 µM.

Consider `CCNC(C)Cc1cccc(C(F)(F)F)c1` (racemic) [(±)-FFA, (±)-Fenfluramine], for which the “effect on locomotor activity” value in [1] ((±)-FFA single treatment at 3.13 µM, Fig. 3D) is recorded as “significant effect”. Further, the “effect on epileptiform (hyper-)locomotor activity” value in data set [1] is reported as “significantly counteracted”. In [2] ((±)-FFA single treatment at 3.13 µM, Fig. 3E, F), the “effect on epileptiform brain discharges” value was “not on the epileptiform brain discharges”. For the same compound, in data set [2] (single treatment at MTC), the “effect on cumulative duration” value is “decrease” and the “effect on frequency” value is recorded as “dramatically attenuated”. In the data set on WT zebrafish larvae, the “maximum tolerated concentration (MTC)” value is on record as 50 µM.

As for `CCN[C@@H](C)Cc1cccc(C(F)(F)F)c1` [(+)-FFA], the EC50 was 0.302 ± 0.02 µM in data set [4] and more than 10 µM with dopamine (DA) release. Moreover, the “Kact values for 5-HT2 receptor subtypes, 5-HT2C” value in the data set with 5-HT2C is recorded as 362 ± 64 nM. Further, the Ki is more than 20 µM at dopamine (DA) uptake and 1.29 ± 0.052 µM in data set [5]. Further, in the data set with 5-HT2B, the “Kact values for 5-HT2 receptor subtypes, 5-HT2B” value was 379 ± 70 nM. Besides, in [3], the “antiepileptic activity” value is “more consistent and concentration-dependent; also recorded: significant antiepileptic effects”.
